Measurements published in US8163737B2 (Vertex Pharmaceuticals Incorporated, priority 2006, dated 2012).

What was measured:
[1] = biological target: T1, CGRP receptor (SK-N-MC membrane) (Homo sapiens, UniProt O60894+Q16602); assay: I125-CGRP binding displacement assay on purified SK-N-MC membrane
T1 construct: Purified SK-N-MC membrane was purchased from Perkin Elmer; purchased Perkin Elmer; host or cells: SK-N-MC membrane
Outline: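 Displacement of I125-CGRP binding was measured by filtration and scintillation counting after 2 h room-temperature incubation with compound and SK-N-MC membranes (buffer pH 7.4, MgCl2, BSA, Tween). Percent displacement calculated against total binding and 1 uM cold CGRP nonspecific controls, then curve-fitted.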

endogenous CGRP receptor = endogenous CGRP receptor (Homo sapiens, UniProt O60894+Q16602); assay: CGRP functional antagonism using SK-N-MC-BLA (4C10), β-lactamase transcriptional reporter assay; format: cell-based; conditions: SK-N-MC (4C10) cells, inhibition of β-lactamase expression in the presence of 200 pM CGRP
Chain of endogenous CGRP receptor (Q16602 23-461): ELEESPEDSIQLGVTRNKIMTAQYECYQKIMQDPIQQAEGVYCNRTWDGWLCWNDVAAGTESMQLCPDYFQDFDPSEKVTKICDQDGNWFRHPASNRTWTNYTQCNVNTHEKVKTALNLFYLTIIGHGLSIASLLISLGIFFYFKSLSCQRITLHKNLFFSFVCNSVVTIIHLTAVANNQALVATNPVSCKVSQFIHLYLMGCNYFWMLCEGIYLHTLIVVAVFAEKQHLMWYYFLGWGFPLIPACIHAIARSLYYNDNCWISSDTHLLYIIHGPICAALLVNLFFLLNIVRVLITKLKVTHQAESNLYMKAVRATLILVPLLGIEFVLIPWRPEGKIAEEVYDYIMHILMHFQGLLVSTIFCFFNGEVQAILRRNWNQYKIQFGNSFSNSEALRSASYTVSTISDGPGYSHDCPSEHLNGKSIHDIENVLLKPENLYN
Chain of endogenous CGRP receptor (O60894 27-148): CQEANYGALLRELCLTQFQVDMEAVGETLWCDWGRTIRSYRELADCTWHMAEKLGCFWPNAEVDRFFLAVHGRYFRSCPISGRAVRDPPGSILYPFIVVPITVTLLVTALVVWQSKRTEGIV

T1 sequence (Q16602 23-461): as the sequence (Q16602 23-461) above
T1 sequence (O60894 27-148): as the sequence (O60894 27-148) above

SMILES	Ki [1]	IC50 (endogenous CGRP receptor)
CC(C)(C)CCN1C(=O)[C@H](CC(=O)N2CCC(N3CCc4ccccc4NC3=O)CC2)SC1c1ccn(C2CCN(C(=O)OC(C)(C)C)CC2)n1 (stereo partly shown) [Compound 490]	< 1000 nM	> 5000 nM
CC(C)(C)CCN1C(=O)[C@H](CC(=O)N2CCC(N3CCc4ccccc4NC3=O)CC2)SC1c1ccn(C2CCNCC2)n1 (stereo partly shown) [Compound 491]	< 1000 nM	< 1000 nM
CC(C)(C)CCN1C(=O)[C@H](CC(=O)N2CCC(N3CCc4ccccc4NC3=O)CC2)SC1c1cnc(C2CCN(C(=O)OC(C)(C)C)CC2)s1 (stereo partly drawn) [Compound 492, tert-Butyl 4-(5-((5S)-3-(3,3-dimethylbutyl)-4-oxo-5-(2-oxo-2-(4-(2-oxo-4,5-dihydro-1H-benzo[d][1,3]diazepin-3(2H)-yl)piperidin-1-yl)ethyl)thiazolidin-2-yl)thiazol-2-yl)piperidine-1-carboxylate]	< 1000 nM	1000 to 5000 nM
CC(C)CN1C(=O)[C@H](CC(=O)N2CCC(N3CCc4ccccc4NC3=O)CC2)SC1c1cccc(F)c1N1CCN(C(C)(C)C)CC1 (stereo partly shown) [Compound 493]	< 1000 nM	< 1000 nM
CC(C)CN1C(=O)[C@H](CC(=O)N2CCC(N3CCc4ccccc4NC3=O)CC2)SC1c1cccc(F)c1N1CCN(C(C)(C)C)CC1 (stereo partly shown) [Compound 494]	< 1000 nM	< 1000 nM
CC(C)CN1C(=O)[C@H](CC(=O)N2CCC(n3c(=O)[nH]c4ncccc43)CC2)S[C@@H]1c1cccc(F)c1N1CCN(C(C)(C)C)CC1 [Compound 495]	< 1000 nM	< 1000 nM
CC(C)CN1C(=O)[C@H](CC(=O)N2CCC(n3c(=O)[nH]c4ncccc43)CC2)S[C@H]1c1cccc(F)c1N1CCN(C(C)(C)C)CC1 [Compound 496]	< 1000 nM	< 1000 nM
CC(C)(C)CCN1C(=O)[C@H](CC(=O)N2CCC(N3CCc4ccccc4NC3=O)CC2)SC1c1cnc(C2CCNCC2)s1 (stereo partly drawn) [Compound 497, (5S)-3-(3,3-Dimethylbutyl)-5-(2-oxo-2-(4-(2-oxo-4,5-dihydro-1H-benzo[d][1,3]diazepin-3(2H)-yl)piperidin-1-yl)ethyl)-2-(2-(piperidin-4-yl)thiazol-5-yl)thiazolidin-4-one]	< 1000 nM	< 1000 nM
CC(C)CN1CCC(c2ncc(C3S[C@@H](CC(=O)N4CCC(N5CCc6ccccc6NC5=O)CC4)C(=O)N3CCC(C)(C)C)s2)CC1 (stereo partly drawn) [Compound 498, (5S)-3-(3,3-Dimethylbutyl)-2-(2-(1-isobutylpiperidin-4-yl)thiazol-5-yl)-5-(2-oxo-2-(4-(2-oxo-4,5-dihydro-1H-benzo[d][1,3]diazepin-3(2H)-yl)piperidin-1-yl)ethyl)thiazolidin-4-one]	< 1000 nM	< 1000 nM
CC(C)(C)CCN1C(=O)[C@H](CC(=O)N2CCC(N3CCc4ccccc4NC3=O)CC2)S[C@@H]1c1ccccc1C1CCNCC1 [Compound 501, 4,5-Dihydro-3-(1-(2-((2R,5S)-3-(3,3-dimethylbutyl)-4-oxo-2-(2-(piperidin-4-yl)phenyl)thiazolidin-5-yl)acetyl)piperidin-4-yl)-1H-benzo[d][1,3]diazepin-2(3H)-one]	< 1000 nM	< 1000 nM
CC(C)(C)CCN1C(=O)[C@H](CC(=O)N2CCC(N3CCc4ccccc4NC3=O)CC2)S[C@H]1c1ccccc1C1CCNCC1 [Compound 502, 4,5-Dihydro-3-(1-(2-((2S,5S)-3-(3,3-dimethylbutyl)-4-oxo-2-(2-(piperidin-4-yl)phenyl)thiazolidin-5-yl)acetyl)piperidin-4-yl)-1H-benzo[d][1,3]diazepin-2(3H)-one]	< 1000 nM	< 1000 nM
CC(C)(C)N1CCN(c2c(F)cccc2[C@H]2S[C@@H](CC(=O)N3CCC(N4CCc5ccccc5NC4=O)CC3)C(=O)N2CCc2ccc(F)cc2)CC1 [Compound 503]	< 1000 nM	< 1000 nM
CC(C)(C)N1CCN(c2c(F)cccc2[C@@H]2S[C@@H](CC(=O)N3CCC(N4CCc5ccccc5NC4=O)CC3)C(=O)N2CCc2ccc(F)cc2)CC1 [Compound 504]	< 1000 nM	< 1000 nM
CC(C)(C)N1CCN(c2c(F)cccc2C2S[C@@H](CC(=O)N3CCC(n4c(=O)[nH]c5ncccc54)CC3)C(=O)N2CCc2ccc(F)cc2)CC1 (stereo partly shown) [Compound 505]	< 1000 nM	< 1000 nM
CC(C)(C)N1CCN(c2c(F)cccc2[C@H]2S[C@@H](CC(=O)N3CCC(N4CCc5ccccc5NC4=O)CC3)C(=O)N2CCc2ccccc2)CC1 [Compound 507]	< 1000 nM	< 1000 nM
CC(C)(C)N1CCN(c2c(F)cccc2[C@@H]2S[C@@H](CC(=O)N3CCC(N4CCc5ccccc5NC4=O)CC3)C(=O)N2CCc2ccccc2)CC1 [Compound 508]	< 1000 nM	< 1000 nM
CC(C)(C)N1CCN(c2c(F)cccc2C2S[C@@H](CC(=O)N3CCC(n4c(=O)[nH]c5ncccc54)CC3)C(=O)N2CCc2ccccc2)CC1 (stereo partly shown) [Compound 509]	< 1000 nM	< 1000 nM
CC(C)(C)CCN1C(=O)[C@H](CC(=O)N2CCC(N3CCc4ccccc4NC3=O)CC2)SC1c1ccccc1N1CCN(C(=O)OC(C)(C)C)CC1=O (stereo partly shown) [Compound 510]	< 1000 nM	< 1000 nM
CC(C)(C)CCN1C(=O)[C@H](CC(=O)N2CCC(N3CCc4ccccc4NC3=O)CC2)SC1c1ccccc1N1CCNCC1=O (stereo partly shown) [Compound 511]	< 1000 nM	< 1000 nM

SMILES	Ki [1]	IC50 (endogenous CGRP receptor)
CC(C)(C)CCN1C(=O)[C@H](CC(=O)N2CCC(N3CCc4ccccc4NC3=O)CC2)SC1c1ccccc1N1CCNCC1=O (stereo partly shown) [Compound 512]	< 1000 nM	< 1000 nM
CN(C)CCNc1c(F)cccc1C1S[C@@H](CC(=O)N2CCC(N3CCc4ccccc4NC3=O)CC2)C(=O)N1CCC(C)(C)C (stereo partly drawn) [Compound 513, 3-(1-(2-((5S)-2-(2-(2-(Dimethylamino)ethylamino)-3-fluorophenyl)-3-(3,3-dimethylbutyl)-4-oxothiazolidin-5-yl)acetyl)piperidin-4-yl)-4,5-dihydro-1H-benzo[d][1,3]diazepin-2(3H)-one]	< 1000 nM	< 1000 nM
CC(C)(C)N1CCN(c2c(F)cccc2[C@H]2S[C@@H](CC(=O)N3CCC(N4CCc5ccccc5NC4=O)CC3)C(=O)N2CC2CCCCC2)CC1 [Compound 514]	< 1000 nM	< 1000 nM
CC(C)(C)N1CCN(c2c(F)cccc2C2S[C@@H](CC(=O)N3CCC(N4CCc5ccccc5NC4=O)CC3)C(=O)N2CC2CCCCC2)CC1 (stereo partly shown) [Compound 515]	< 1000 nM	< 1000 nM
CC(C)(C)N1CCN(c2c(F)cccc2C2S[C@@H](CC(=O)N3CCC(n4c(=O)[nH]c5ncccc54)CC3)C(=O)N2CC2CCCCC2)CC1 (stereo partly shown) [Compound 516]	< 1000 nM	< 1000 nM
CN(C)CCNc1c(F)cccc1C1S[C@@H](CC(=O)N2CCC(n3c(=O)[nH]c4ncccc43)CC2)C(=O)N1CCC(C)(C)C (stereo partly drawn) [Compound 518, 1-(1-(2-((5S)-2-(2-(2-(Dimethylamino)ethylamino)-3-fluorophenyl)-3-(3,3-dimethylbutyl)-4-oxothiazolidin-5-yl)acetyl)piperidin-4-yl)-1H-imidazo[4,5-b]pyridin-2(3H)-one]	< 1000 nM	< 1000 nM
CC(C)CCN1CCC(c2ncc(C3S[C@@H](CC(=O)N4CCC(N5CCc6ccccc6NC5=O)CC4)C(=O)N3CCC(C)(C)C)s2)CC1 (stereo partly shown) [Compound 519]	< 1000 nM	< 1000 nM
CC(C)(C)CCN1C(=O)[C@H](CC(=O)N2CCC(N3CCc4ccccc4NC3=O)CC2)SC1c1cccc(F)c1NCCN1CCCCC1 (stereo partly drawn) [Compound 520, 3-(1-(2-((5S)-2-(2-(2-(Piperidin-1-yl)ethylamino)-3-fluorophenyl)-3-(3,3-dimethylbutyl)-4-oxothiazolidin-5-yl)acetyl)piperidin-4-yl)-4,5-dihydro-1H-benzo[d][1,3]diazepin-2(3H)-one]	< 1000 nM	< 1000 nM
CCCCN1C(=O)[C@H](CC(=O)N2CCC(N3CCc4ccccc4NC3=O)CC2)SC1c1cccc(F)c1N1CCN(C(C)(C)C)CC1 (stereo partly shown) [Compound 521]	< 1000 nM	< 1000 nM
CCCCN1C(=O)[C@H](CC(=O)N2CCC(N3CCc4ccccc4NC3=O)CC2)SC1c1cccc(F)c1N1CCN(C(C)(C)C)CC1 (stereo partly shown) [Compound 522]	< 1000 nM	< 1000 nM
CC(C)(C)N1CCN(c2c(F)cccc2[C@H]2S[C@@H](CC(=O)N3CCC(N4CCc5ccccc5NC4=O)CC3)C(=O)N2CC2CCOCC2)CC1 [Compound 523]	< 1000 nM	< 1000 nM
CC(C)(C)N1CCN(c2c(F)cccc2[C@@H]2S[C@@H](CC(=O)N3CCC(N4CCc5ccccc5NC4=O)CC3)C(=O)N2CC2CCOCC2)CC1 [Compound 524]	< 1000 nM	< 1000 nM
CC(C)(C)N1CCN(c2c(F)cccc2C2S[C@@H](CC(=O)N3CCC(n4c(=O)[nH]c5ncccc54)CC3)C(=O)N2CC2CCOCC2)CC1 (stereo partly shown) [Compound 525]	< 1000 nM	< 1000 nM
CC(C)OCCN1C(=O)[C@H](CC(=O)N2CCC(N3CCc4ccccc4NC3=O)CC2)SC1c1cccc(F)c1N1CCN(C(C)(C)C)CC1 (stereo partly shown) [Compound 526]	< 1000 nM	< 1000 nM
CC(C)(C)CCN1C(=O)[C@H](CC(=O)N2CCC(n3c(=O)[nH]c4ncccc43)CC2)SC1c1ccccc1N1CCNCC1=O (stereo partly shown) [Compound 527]	< 1000 nM	< 1000 nM
CC(C)(C)CCN1C(=O)[C@H](CC(=O)N2CCC(n3c(=O)[nH]c4ncccc43)CC2)SC1c1ccccc1C1CCNCC1 (stereo partly shown) [Compound 528]	< 1000 nM	< 1000 nM
CC(C)OCCN1C(=O)[C@H](CC(=O)N2CCC(N3CCc4ccccc4NC3=O)CC2)SC1c1cccc(F)c1N1CCN(C(C)(C)C)CC1 (stereo partly shown) [Compound 529]	< 1000 nM	< 1000 nM
CC(C)OCCN1C(=O)[C@H](CC(=O)N2CCC(n3c(=O)[nH]c4ncccc43)CC2)SC1c1cccc(F)c1N1CCN(C(C)(C)C)CC1 (stereo partly shown) [Compound 530]	< 1000 nM	< 1000 nM
CC(C)OCCN1C(=O)[C@H](CC(=O)N2CCC(n3c(=O)[nH]c4ncccc43)CC2)SC1c1cccc(F)c1N1CCN(C(C)(C)C)CC1 (stereo partly shown) [Compound 531]	< 1000 nM	< 1000 nM
